Test results from patent US11535621B2, “Heterobicyclic amides as inhibitors of CD38” (Ribon Therapeutics, Inc., priority 2019, dated 2022).

biological target: Human CD38 (Homo sapiens (Human), UniProt P28907); test: CD38 enzyme assay; type: biochemical; conditions: 2 nM CD38, NAD+ substrate, absorbance at 405 nm
Summary of the method: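 IC50 values come from fitting % inhibition against compound concentration with a 4-parameter logistic, or a 3-parameter fit with top/bottom fixed at 100/0 or Hill at 1. Inhibition is scaled between DMSO wells and positive-control wells treated with a quinolinone CD38 inhibitor.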

Human CD38, sequence (P28907 whole entry): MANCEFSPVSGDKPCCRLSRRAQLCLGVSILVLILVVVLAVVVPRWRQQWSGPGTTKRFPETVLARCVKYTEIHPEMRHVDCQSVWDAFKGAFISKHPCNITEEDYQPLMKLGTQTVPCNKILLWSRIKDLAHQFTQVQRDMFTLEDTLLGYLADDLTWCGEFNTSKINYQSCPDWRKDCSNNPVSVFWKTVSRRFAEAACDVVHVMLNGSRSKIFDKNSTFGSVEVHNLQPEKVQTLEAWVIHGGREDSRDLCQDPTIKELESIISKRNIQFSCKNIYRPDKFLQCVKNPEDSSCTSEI

Question: For `O=C(N[C@H]1CC[C@H](N2CCC(F)(F)C2)CC1)c1nc(-n2ccnc2)cc2cn[nH]c12` [Example 232, N-((1r,4r)-4-(3,3-difluoropyrrolidin-1-yl)cyclohexyl)-5-(1H-imidazol-1-yl)-1H-pyrazolo[3,4-c]pyridine-7-carboxamide], which IC50 is on record?
Answer: 10 to 100 nM

Question: How did the IC50 turn out when `CNC(=O)[C@H]1CC[C@H](NC(=O)c2nc(-n3ccnc3)nc3cn[nH]c23)CC1` [Example 242, 5-(1H-imidazol-1-yl)-N-((1r,4r)-4-(methylcarbamoyl)cyclohexyl)-1H-pyrazolo[4,3-d]pyrimidine-7-carboxamide] was run?
Answer: 10 to 100 nM

Question: Which IC50 does the source give for `O=C(N[C@H]1CC[C@@H](C(F)(F)F)CC1)c1nc(-n2ccnc2)nc2cc[nH]c12` [Example 39a, 2-(1H-Imidazol-1-yl)-N-((1s,4s)-4-(trifluoromethyl)cyclohexyl)-5H-pyrrolo[3,2-d]pyrimidine-4-carboxamide] here?
Answer: < 10 nM

Question: How did the IC50 turn out when `O=C(NC1CCC(F)(F)CC1)c1nc(-n2ccnc2)cc2cn[nH]c12` [Example 107, N-(4,4-difluorocyclohexyl)-5-(1H-imidazol-1-yl)-1H-pyrazolo[3,4-c]pyridine-7-carboxamide] was run?
Answer: < 10 nM

Question: For `COCCO[C@H]1CC[C@H](NC(=O)c2cc(-c3cncs3)nc3cn[nH]c23)CC1` [Example 17, N-((1r,4r)-4-(2-Methoxyethoxy)cyclohexyl)-5-(thiazol-5-yl)-1H-pyrazolo[4,3-b]pyridine-7-carboxamide], which IC50 is on record?
Answer: 100 to 1000 nM

Question: Which IC50 does the source give for `COCCO[C@H]1CC[C@H](NC(=O)c2nc(-n3ccnc3)nc3cn[nH]c23)CC1` [Example 23, 5-(1H-Imidazol-1-yl)-N-((1r,4r)-4-(2-methoxyethoxy)cyclohexyl)-1H-pyrazolo[4,3-d]pyrimidine-7-carboxamide] here?
Answer: 10 to 100 nM

Question: For `CC(=O)NC[C@H]1CC[C@H](NC(=O)c2nc(-n3ccnc3)cc3cn[nH]c23)CC1` [Example 209, N-((1r,4r)-4-(acetamidomethyl)cyclohexyl)-5-(1H-imidazol-1-yl)-1H-pyrazolo[3,4-c]pyridine-7-carboxamide], which IC50 is on record?
Answer: 10 to 100 nM

Question: For `CC(C)[C@H](O)CO[C@H]1CC[C@H](NC(=O)c2nc(-n3ccnc3)nc3cc[nH]c23)CC1` (single isomer, unassigned) [Example 119b], which IC50 is on record?
Answer: 10 to 100 nM

Question: With `COCCO[C@H]1C[C@H](NC(=O)c2nc(-n3ccnc3)nc3cc[nH]c23)C1` [Example 65, 2-(1H-Imidazol-1-yl)-N-((1r,3r)-3-(2-methoxyethoxy)cyclobutyl)-5H-pyrrolo[3,2-d]pyrimidine-4-carboxamide] as the compound, how does the IC50 read?
Answer: 10 to 100 nM

Question: How did the IC50 turn out when `N#CCO[C@H]1CC[C@H](NC(=O)c2nc(-n3ccnc3)nc3cn[nH]c23)CC1` [Example 214, N-((1r,4r)-4-(cyanomethoxy)cyclohexyl)-5-(1H-imidazol-1-yl)-1H-pyrazolo[4,3-d]pyrimidine-7-carboxamide] was run?
Answer: < 10 nM

Question: For `O=C(Nc1ccccc1)c1nc(-n2ccnc2)nc2cc[nH]c12` [Example 82, 2-(1H-Imidazol-1-yl)-N-phenyl-5H-pyrrolo[3,2-d]pyrimidine-4-carboxamide], which IC50 is on record?
Answer: < 10 nM

Question: `O=C(Nc1ccc2c(c1)CNC2)c1nc(-n2ccnc2)nc2cc[nH]c12` [Example 211, 2-(1H-imidazol-1-yl)-N-(isoindolin-5-yl)-5H-pyrrolo[3,2-d]pyrimidine-4-carboxamide] was tested. Which IC50 did it give?
Answer: < 10 nM

Question: `CC(C)(O)[C@H]1CC[C@H](NC(=O)c2nc(-n3ccnc3)cc3cn[nH]c23)CC1` [Example 109, N-((1r,4r)-4-(2-hydroxypropan-2-yl)cyclohexyl)-5-(1H-imidazol-1-yl)-1H-pyrazolo[3,4-c]pyridine-7-carboxamide] was tested. Which IC50 did it give?
Answer: < 10 nM

Question: How did the IC50 turn out when `O=C(N[C@H]1CC[C@H](OCCC(F)(F)F)CC1)c1nc(-n2ccnc2)cc2cn[nH]c12` [Example 249, 5-(1H-imidazol-1-yl)-N-((1r,4r)-4-(3,3,3-trifluoropropoxy)cyclohexyl)-1H-pyrazolo[3,4-c]pyridine-7-carboxamide] was run?
Answer: < 10 nM

Question: With `O=C(NC1CCN(C2COC2)CC1)c1nc(-n2ccnc2)nc2cc[nH]c12` [Example 76, 2-(1H-Imidazol-1-yl)-N-(1-(oxetan-3-yl)piperidin-4-yl)-5H-pyrrolo[3,2-d]pyrimidine-4-carboxamide] as the compound, how does the IC50 read?
Answer: 10 to 100 nM

Question: Which IC50 does the source give for `CN(CCC(F)(F)F)[C@H]1CC[C@@H](NC(=O)c2nc(-n3ccnc3)nc3cc[nH]c23)CC1` [Example 111, 2-(1H-imidazol-1-yl)-N-((1s,4s)-4-(methyl(3,3,3-trifluoropropyl)amino)cyclohexyl)-5H-pyrrolo[3,2-d]pyrimidine-4-carboxamide] here?
Answer: 100 to 1000 nM

Question: `CC1(F)CN([C@H]2CC[C@@H](NC(=O)c3nc(-n4ccnc4)nc4cn[nH]c34)CC2)C1` [Example 256, N-((1s,4s)-4-(3-fluoro-3-methylazetidin-1-yl)cyclohexyl)-5-(1H-imidazol-1-yl)-1H-pyrazolo[4,3-d]pyrimidine-7-carboxamide] was tested. Which IC50 did it give?
Answer: 100 to 1000 nM

Question: With `O=C(NC1CCN(CCC(F)(F)F)CC1)c1nc(-n2ccnc2)nc2cc[nH]c12` [Example 55, 2-(1H-Imidazol-1-yl)-N-(1-(3,3,3-trifluoropropyl)piperidin-4-yl)-5H-pyrrolo[3,2-d]pyrimidine-4-carboxamide] as the compound, how does the IC50 read?
Answer: 10 to 100 nM

Question: `Cn1cnc(NC(=O)c2nc(-n3ccnc3)nc3cc[nH]c23)c1` [Example 95, 2-(1H-Imidazol-1-yl)-N-(1-methyl-1H-imidazol-4-yl)-5H-pyrrolo[3,2-d]pyrimidine-4-carboxamide] was tested. Which IC50 did it give?
Answer: 10 to 100 nM

Question: For `O=C(NCc1c(F)cccc1C(F)(F)F)c1nc(-n2ccnc2)nc2nc[nH]c12` [Example 46, N-(2-Fluoro-6-(trifluoromethyl)benzyl)-2-(1H-imidazol-1-yl)-7H-purine-6-carboxamide], which IC50 is on record?
Answer: 10 to 100 nM

Question: With `O=C(N[C@H]1CC[C@@H](NCC(F)F)CC1)c1nc(-n2ccnc2)nc2cc[nH]c12` [Example 106, N-((1s,4s)-4-((2,2-difluoroethyl)amino)cyclohexyl)-2-(1H-imidazol-1-yl)-5H-pyrrolo[3,2-d]pyrimidine-4-carboxamide] as the compound, how does the IC50 read?
Answer: 100 to 1000 nM

Question: Which IC50 does the source give for `O=C(NCc1c(F)cccc1C(F)(F)F)c1nc(-n2ccnc2)nc2ccsc12` [Example 49, N-(2-Fluoro-6-(trifluoromethyl)benzyl)-2-(1H-imidazol-1-yl)thieno[3,2-d]pyrimidine-4-carboxamide] here?
Answer: 10 to 100 nM

Question: With `Cc1cc2nc(-n3ccnc3)nc(C(=O)N[C@H]3CC[C@H](C(C)(C)O)CC3)c2[nH]1` [Example 184] as the compound, how does the IC50 read?
Answer: < 10 nM

Question: Which IC50 does the source give for `O=C(N[C@H]1CC[C@H](NCCC(F)(F)F)CC1)c1nc(-n2ccnc2)cc2cn[nH]c12` [Example 189, 5-(1H-imidazol-1-yl)-N-((1r,4r)-4-((3,3,3-trifluoropropyl)amino)cyclohexyl)-1H-pyrazolo[3,4-c]pyridine-7-carboxamide] here?
Answer: 10 to 100 nM

Question: For `O=C(Nc1ccc(F)c(Cl)c1)c1nc(-n2ccnc2)nc2cc[nH]c12` [Example 96, N-(3-Chloro-4-fluorophenyl)-2-(1H-imidazol-1-yl)-5H-pyrrolo[3,2-d]pyrimidine-4-carboxamide], which IC50 is on record?
Answer: < 10 nM

Question: `O=C(NCCC(F)F)c1nc(-n2ccnc2)cc2cn[nH]c12` [Example 245, N-(3,3-difluoropropyl)-5-(1H-imidazol-1-yl)-1H-pyrazolo[3,4-c]pyridine-7-carboxamide] was tested. Which IC50 did it give?
Answer: 10 to 100 nM

Question: Which IC50 does the source give for `O=C(N[C@H]1CC[C@H](CO)CC1)c1nc(-n2ccnc2)cc2cn[nH]c12` [Example 225, N-((1r,4r)-4-(hydroxymethyl)cyclohexyl)-5-(1H-imidazol-1-yl)-1H-pyrazolo[3,4-c]pyridine-7-carboxamide] here?
Answer: < 10 nM

Question: For `O=C(N[C@H]1CC[C@H](N2CC(C(F)(F)F)C2)CC1)c1nc(-n2ccnc2)cc2cn[nH]c12` [Example 234, 5-(1H-imidazol-1-yl)-N-((1r,4r)-4-(3-(trifluoromethyl)azetidin-1-yl)cyclohexyl)-1H-pyrazolo[3,4-c]pyridine-7-carboxamide], which IC50 is on record?
Answer: 10 to 100 nM

Question: How did the IC50 turn out when `O=C(N[C@H]1CC[C@H](N2CC(C(F)(F)F)C2)CC1)c1nc(-n2ccnc2)nc2cn[nH]c12` [Example 241, 5-(1H-imidazol-1-yl)-N-((1r,4r)-4-(3-(trifluoromethyl)azetidin-1-yl)cyclohexyl)-1H-pyrazolo[4,3-d]pyrimidine-7-carboxamide] was run?
Answer: 10 to 100 nM

Question: How did the IC50 turn out when `COCCO[C@H]1CC[C@H](NC(=O)c2nc(-n3ccnc3)nc3ccsc23)CC1` [Example 18, 2-(1H-Imidazol-1-yl)-N-((1r,4r)-4-(2-methoxyethoxy)cyclohexyl)thieno[3,2-d]pyrimidine-4-carboxamide] was run?
Answer: 10 to 100 nM

Question: Which IC50 does the source give for `CC(C)[C@](C)(O)COC1CCC(NC(=O)c2nc(-n3ccnc3)nc3cc[nH]c23)CC1` (stereo partly drawn) [Example 126b, N-((1R,4r)-4-((S)-2-hydroxy-2,3-dimethylbutoxy)cyclohexyl)-2-(1H-imidazol-1-yl)-5H-pyrrolo[3,2-d]pyrimidine-4-carboxamide] here?
Answer: 10 to 100 nM

Question: For `CN(CC(F)(F)F)[C@H]1CC[C@@H](NC(=O)c2nc(-n3ccnc3)nc3cc[nH]c23)CC1` [Example 113, 2-(1H-imidazol-1-yl)-N-((1s,4s)-4-(methyl(2,2,2-trifluoroethyl)amino)cyclohexyl)-5H-pyrrolo[3,2-d]pyrimidine-4-carboxamide], which IC50 is on record?
Answer: 10 to 100 nM

Question: Which IC50 does the source give for `O=C(NC1CCNC1)c1nc(-n2ccnc2)nc2cc[nH]c12` (stereo not drawn) [Example 73, 2-(1H-Imidazol-1-yl)-N-(pyrrolidin-3-yl)-5H-pyrrolo[3,2-d]pyrimidine-4-carboxamide] here?
Answer: 100 to 1000 nM

Question: `COCCO[C@H]1CC[C@H](NC(=O)c2nc(-c3c[nH]cn3)nc3cc[nH]c23)CC1` [Example 38, 2-(1H-Imidazol-4-yl)-N-((1r,4r)-4-(2-methoxyethoxy)cyclohexyl)-5H-pyrrolo[3,2-d]pyrimidine-4-carboxamide] was tested. Which IC50 did it give?
Answer: > 1000 nM

Question: For `CC(C)(O)[C@H]1C[C@H](NC(=O)c2nc(-n3ccnc3)cc3cn[nH]c23)C1` [Example 266, N-((1r,3r)-3-(2-hydroxypropan-2-yl)cyclobutyl)-5-(1H-imidazol-1-yl)-1H-pyrazolo[3,4-c]pyridine-7-carboxamide], which IC50 is on record?
Answer: 10 to 100 nM

Question: Which IC50 does the source give for `O=C(N[C@H]1CC[C@H](NCCC(F)(F)F)CC1)c1nc(-n2ccnc2)nc2cc[nH]c12` [Example 103, 2-(1H-imidazol-1-yl)-N-((1r,4r)-4-((3,3,3-trifluoropropyl)amino)cyclohexyl)-5H-pyrrolo[3,2-d]pyrimidine-4-carboxamide] here?
Answer: 10 to 100 nM
